Data: patent publication US8530460B2, “Azetidine derivatives” (Boehringer Ingelheim International GmbH, priority 2011, dated 2013)

target: human ACC2 (Homo sapiens (Human), UniProt O00763); test: ACC2 assay (spectrophotometric 384 well assay, NADH-linked coupled lactate dehydrogenase/pyruvate kinase); assay type: biochemical; settings: not given
Method: Spectrophotometric 384 Well Assay
Malonyl CoA formation by acetyl CoA carboxylases is stoichometrically linked to the consumption of ATP. ACC2 activity is measured in a NADH-linked kinetic method measuring ADP generated during the ACC reaction using a coupled lactate dehydrogenase/pyruvate kinase reaction.
For biological testing, a human ACC2 construct which lacks the 128 amino acids at the N-terminus for increased solubility (nt 385-6966 in Genbank entry AJ575592) is cloned. The protein is then expressed in insect cells using a baculoviral expression system. Protein purification is performed by anion exchange.
All compounds are dissolved in dimethyl sulfoxide (DMSO) to a concentration of 10 mM.
Assay reactions are then carried out in 384-well plates, with hACC2 in an appropriate dilution and at final assay concentrations (f.c.) of 100 mM Tris (pH 7.5), 10 mM trisodium citrate, 25 mM KHCO3, 10 mM MgCl2, 0.5 mg/ml BSA, 3.75 mM reduced L-glutathione, 15 U/ml lactate dehydrogenase, 0.5 mM phosphoenolpyruvate, 15 U/ml pyruvate kinase, compounds at different concentrations at final DMSO concentrations of 1%.
The enzymatic reaction is then started by addition of a mixture of NADH, acetyl Coenzyme A (both 200 μM f.c.) and ATP (500 uM f.c.). The decrease of the optical density (slope S) is then determined at 25° C. at a wavelength of 340 nm over 15 minutes in a spectrophotometric reader.
Each assay microtiter plate contains wells with vehicle instead of compound as controls for the non-inhibited enzyme (100% CTL; ‘HIGH’) and wells without acetyl-CoA as controls for non-specific NADH degradation (0% CTL; ‘LOW’).
The slope S is used for calculation of % CTL=(S(compound)−S(‘LOW’))/(S(‘HIGH’)—S(‘LOW’))*100. Compounds will give values between 100% CTL (no inhibition) and 0% CTL (complete inhibition).
For IC50 value determination, the sample slope in the presence of the test compound after subtraction of the low controls (S(compound)−S(‘LOW’)) are used.
An IC50 value is derived from the compound slopes at different dosages after subtraction of the low controls (S(compound)−S(‘LOW’)) by non-linear regression curve fitting (equation y=(A+((B−A)/(1+((C/x)^D))))).

Sequence of human ACC2 (O00763 129-2458): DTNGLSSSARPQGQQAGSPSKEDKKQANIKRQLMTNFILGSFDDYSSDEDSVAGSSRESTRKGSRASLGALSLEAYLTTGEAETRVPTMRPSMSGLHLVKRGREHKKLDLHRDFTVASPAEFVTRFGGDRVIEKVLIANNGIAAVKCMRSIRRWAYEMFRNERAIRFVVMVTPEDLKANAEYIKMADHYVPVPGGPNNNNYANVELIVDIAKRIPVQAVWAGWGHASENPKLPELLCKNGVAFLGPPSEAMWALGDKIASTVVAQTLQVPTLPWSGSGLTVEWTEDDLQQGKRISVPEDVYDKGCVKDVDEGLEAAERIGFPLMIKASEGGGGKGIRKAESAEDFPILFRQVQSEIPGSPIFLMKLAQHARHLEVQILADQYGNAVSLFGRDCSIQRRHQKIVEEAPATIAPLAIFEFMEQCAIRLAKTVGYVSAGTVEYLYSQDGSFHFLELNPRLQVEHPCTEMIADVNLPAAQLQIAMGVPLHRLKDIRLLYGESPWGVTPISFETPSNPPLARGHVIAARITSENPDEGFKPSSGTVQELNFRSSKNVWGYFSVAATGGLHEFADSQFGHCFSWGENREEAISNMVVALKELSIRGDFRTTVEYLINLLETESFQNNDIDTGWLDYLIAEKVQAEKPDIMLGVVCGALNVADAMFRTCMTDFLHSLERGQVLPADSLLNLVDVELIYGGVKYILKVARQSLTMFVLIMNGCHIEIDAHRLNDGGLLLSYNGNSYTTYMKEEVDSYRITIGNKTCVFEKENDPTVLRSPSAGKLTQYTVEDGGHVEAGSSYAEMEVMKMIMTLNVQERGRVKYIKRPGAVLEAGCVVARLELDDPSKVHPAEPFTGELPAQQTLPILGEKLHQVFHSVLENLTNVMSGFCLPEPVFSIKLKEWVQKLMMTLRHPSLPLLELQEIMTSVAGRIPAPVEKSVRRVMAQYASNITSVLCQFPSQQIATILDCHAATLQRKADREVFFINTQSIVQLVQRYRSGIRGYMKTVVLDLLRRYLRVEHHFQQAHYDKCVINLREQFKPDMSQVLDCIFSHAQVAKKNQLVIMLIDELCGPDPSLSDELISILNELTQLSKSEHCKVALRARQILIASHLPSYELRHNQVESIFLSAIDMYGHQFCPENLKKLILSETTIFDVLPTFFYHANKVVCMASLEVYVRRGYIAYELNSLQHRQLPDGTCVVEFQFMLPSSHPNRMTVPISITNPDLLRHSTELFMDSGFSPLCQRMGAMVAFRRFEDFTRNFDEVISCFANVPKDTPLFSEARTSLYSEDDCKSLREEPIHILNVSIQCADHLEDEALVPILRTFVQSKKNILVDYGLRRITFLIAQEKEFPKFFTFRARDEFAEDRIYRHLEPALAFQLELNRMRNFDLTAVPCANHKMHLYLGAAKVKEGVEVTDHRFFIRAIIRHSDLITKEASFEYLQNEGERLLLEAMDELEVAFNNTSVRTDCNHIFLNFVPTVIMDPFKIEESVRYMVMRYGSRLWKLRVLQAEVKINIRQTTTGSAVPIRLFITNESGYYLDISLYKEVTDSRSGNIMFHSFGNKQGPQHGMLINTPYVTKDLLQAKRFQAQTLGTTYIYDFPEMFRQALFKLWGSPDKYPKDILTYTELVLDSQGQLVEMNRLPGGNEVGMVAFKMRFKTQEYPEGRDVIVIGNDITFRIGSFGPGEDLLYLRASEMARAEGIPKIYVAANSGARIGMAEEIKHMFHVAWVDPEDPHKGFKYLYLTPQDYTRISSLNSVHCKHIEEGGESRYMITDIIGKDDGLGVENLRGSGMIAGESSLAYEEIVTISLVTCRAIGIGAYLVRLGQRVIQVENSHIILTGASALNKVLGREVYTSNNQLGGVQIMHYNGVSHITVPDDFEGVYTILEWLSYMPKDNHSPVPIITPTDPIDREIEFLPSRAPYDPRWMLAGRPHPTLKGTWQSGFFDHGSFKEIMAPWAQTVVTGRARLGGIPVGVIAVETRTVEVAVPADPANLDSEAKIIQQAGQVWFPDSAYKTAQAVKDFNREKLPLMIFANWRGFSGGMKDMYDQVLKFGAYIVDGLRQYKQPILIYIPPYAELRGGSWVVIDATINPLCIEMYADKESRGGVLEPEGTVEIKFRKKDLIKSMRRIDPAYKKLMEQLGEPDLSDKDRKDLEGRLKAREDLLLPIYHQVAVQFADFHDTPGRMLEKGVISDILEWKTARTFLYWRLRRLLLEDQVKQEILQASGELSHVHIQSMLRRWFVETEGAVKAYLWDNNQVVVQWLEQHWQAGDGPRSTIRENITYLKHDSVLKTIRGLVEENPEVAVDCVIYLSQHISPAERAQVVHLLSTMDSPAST

In the case of `CC(=O)N[C@@H](C)c1ccc(OC2CN(c3ccc(OCC4CC4)nc3)C2)cc1` [Example 2.1, (S)—N-(1-(4-(1-(6-(Cyclopropylmethoxy)Pyridin-3-yl)azetidin-3-yloxy)phenyl)ethyl)-acetamide], the IC50 is reported as 0.88 µM.

same assay, conditions: hACC2 construct lacking 128 N-terminal amino acids; 25° C., 340 nm, 15 minutes

Going from `CC(=O)N[C@@H](C)c1ccc(OC2CN(c3ccc4c(c3)OCCCO4)C2)cc1` [Example 1.16] to `CC(=O)N[C@@H](C)c1ccc(OC2CN(c3ccc4c(c3)OCC(C)(C)CO4)C2)cc1` [Example 1.18], the IC50 falls from 0.45 µM to 0.14 µM (3.2-fold).

Compared with `CC(=O)N[C@@H](C)c1ccc(OC2CN(c3ccnc(OC(C)C)c3)C2)cc1` [Example 2.7], `CC(=O)N[C@@H](C)c1ccc(OC2CN(c3ccnc(Oc4ccccc4)c3)C2)cc1` [Example 2.8] is 2-fold higher in IC50: 2.06 µM for the first, 4.1 µM for the second. The first is the more potent here.

First: CCOc1ccc(N2CC(Oc3ccc([C@H](C)NC(=O)CC#N)cc3)C2)cc1 [Example 8.8]
Second: CCOc1ccc(N2CC(Oc3ccc([C@H](C)NC(=O)CO)cc3)C2)cc1 [Example 8.17]
The IC50 of the first is 6.5-fold lower: 0.43 µM for the first, 2.79 µM for the second. The first is the more potent here.

Going from `CCCOc1ccc(N2CC(Oc3ccc([C@H](C)NC(=O)C4CC4)cc3)C2)c(OC)c1` [Example 8.1, (S)—N-(1-(4-(1-(2-Methoxy-4-propoxyphenyl)azetidin-3-yloxy)phenyl)ethyl)cyclopropanecarboxamide] to `COc1cc(OCC2CC2)ccc1N1CC(Oc2ccc([C@H](C)NC(C)=O)cc2)C1` [Example 1.36], the IC50 falls from 7.7 µM to 2.83 µM (2.7-fold).

First: C[C@H](NC(=O)N(C)C)c1ccc(OC2CN(c3ncc(Br)cn3)C2)cc1 [Example 3.7]
Second: CC(=O)N[C@@H](C)c1ccc(OC2CN(c3ncc(Br)cn3)C2)cc1 [Example 3.1, (S)—N-(1-(4-(1-(5-bromopyrimidin-2-yl)azetidin-3-yloxy)phenyl)ethyl)acetamide]
The IC50 of the first is 2.2-fold higher: 0.47 µM for the first, 0.21 µM for the second. The second is the more potent here.

Compared with `CCCOc1ccc(N2CC(Oc3ccc([C@H](C)NC(C)=O)cc3)C2)c(Cl)c1` [Example 2.6], `CCCOc1ccc(N2CC(Oc3ccc([C@H](C)NC(C)=O)cc3)C2)c(C#N)c1` [Example 1.25] is 6.4-fold higher in IC50: 0.09 µM for the first, 0.58 µM for the second.

Going from `CC(=O)N[C@@H](C)c1ccc(OC2CN(c3nc4ccccc4nc3C)C2)cc1` [Example 4.38] to `CC(=O)N[C@@H](C)c1ccc(OC2CN(c3nc4ccccc4o3)C2)cc1` [Example 4.3], the IC50 falls from 3.05 µM to 0.48 µM (6.4-fold).

First: CCOc1ccc(N2CC(Oc3ccc([C@H](C)NC(C)=O)cc3)C2)nc1 [Example 1.51]
Second: CCOc1ccc(N2CC(Oc3ccc([C@H](C)NC(C)=O)cc3)C2)cc1 [Example 1.19]
The IC50 of the first is 3-fold higher: 0.27 µM for the first, 0.09 µM for the second.

First: CCOc1ccc(N2CC(Oc3ccc([C@H](C)NC(=O)c4ccc(C)o4)cc3)C2)cc1 [Example 8.37]
Second: CCOc1ccc(N2CC(Oc3ccc([C@H](C)NC(=O)C(C)C)cc3)C2)cc1 [Example 8.16]
The IC50 of the first is 2.9-fold higher: 2.06 µM for the first, 0.7 µM for the second.

First: CCOC(=O)c1cc(C#N)c(N2CC(Oc3ccc([C@H](C)NC(C)=O)cc3)C2)nc1C(F)(F)F [Example 4.36]
Second: CC(=O)N[C@@H](C)c1ccc(OC2CN(c3nc(C(F)(F)F)ccc3F)C2)cc1 [Example 4.43]
The IC50 of the first is 2.2-fold higher: 1.14 µM for the first, 0.53 µM for the second. The second is the more potent here.

Going from `CCOc1ccc(N2CC(Oc3ccc([C@H](C)NC(=O)C4CC=CC4)cc3)C2)cc1` [Example 8.40] to `CCOc1ccc(N2CC(Oc3ccc([C@H](C)NC(=O)C4CC4)cc3)C2)cc1` [Example 2.10], the IC50 falls from 0.35 µM to 0.14 µM (2.5-fold). The second is the more potent here.

First: CCCOc1ccnc(N2CC(Oc3ccc([C@H](C)NC(C)=O)cc3)C2)c1 [Example 2.12]
Second: CCCOc1nccc(N2CC(Oc3ccc([C@H](C)NC(C)=O)cc3)C2)n1 [Example 11.6]
The IC50 of the first is 1.8-fold lower: 4.5 µM for the first, 8.28 µM for the second.

Compared with `CC(=O)N[C@@H](C)c1ccc(OC2CN(c3ccc4c(c3)OCCCC4(C)C)C2)cc1` [Example 1.29], `CC(=O)N[C@@H](C)c1ccc(OC2CN(c3ccc4c(c3)OC(F)(F)O4)C2)cc1` [Example 1.26] is 3.9-fold higher in IC50: 0.19 µM for the first, 0.74 µM for the second.

First: CC(=O)N[C@@H](C)c1ccc(OC2CN(c3nccc4ccccc34)C2)cc1 [Example 4.6]
Second: CC(=O)N[C@@H](C)c1ccc(OC2CN(c3nc(-c4ccccc4)no3)C2)cc1 [Example 4.41]
The IC50 of the first is 1.8-fold higher: 6.23 µM for the first, 3.48 µM for the second. The second is the more potent here.

Compared with `CC(=O)N[C@@H](C)c1ccc(OC2CN(c3ncc(C(C)(C)C)cn3)C2)cc1` [Example 4.27], `CC(=O)N[C@@H](C)c1ccc(OC2CN(c3ncc(C4CC4)cn3)C2)cc1` [Example 5.1, (S)—N-(1-(4-(1-(5-Cyclopropylpyrimidin-2-yl)azetidin-3-yloxy)phenyl)ethyl)acetamide] is 3.4-fold lower in IC50: 0.57 µM for the first, 0.17 µM for the second. The second is the more potent here.

Compared with `COc1cc(-c2cnc(N3CC(Oc4ccc([C@H](C)NC(C)=O)cc4)C3)nc2)ccn1` [Example 6.2], `CC(=O)N[C@@H](C)c1ccc(OC2CN(c3ncc(-c4ccc(F)cc4)cn3)C2)cc1` [Example 6.1] is 19-fold lower in IC50: 1.74 µM for the first, 0.09 µM for the second.

First: CCCOc1ccc(N2CC(Oc3ccc([C@H](C)NC(C)=O)cc3)C2)c(C#N)n1 [Example 1.59]
Second: CCOc1cccc(N2CC(Oc3ccc([C@H](C)NC(C)=O)cc3)C2)n1 [Example 4.11]
The IC50 of the first is 12-fold lower: 0.3 µM for the first, 3.62 µM for the second. The first is the more potent here.

First: CCOc1ccc(N2CC(Oc3ccc([C@H](C)NC(=O)C4(C)CC4)cc3)C2)cc1 [Example 8.9]
Second: CCOc1ccc(N2CC(Oc3ccc([C@H](C)NC(=O)N(C)C)cc3)C2)cc1 [Example 10.3]
The IC50 of the first is 1.7-fold higher: 1.15 µM for the first, 0.67 µM for the second. The second is the more potent here.

Compared with `CC(=O)N[C@@H](C)c1ccc(OC2CN(c3ccc(C4(C#N)CC4)cn3)C2)cc1` [Example 4.12], `CC(=O)N[C@@H](C)c1ccc(OC2CN(c3ccc(C(C)C)cn3)C2)cc1` [Example 4.5] is 2.3-fold higher in IC50: 1.06 µM for the first, 2.45 µM for the second.

First: C[C@H](NC(=O)CC#N)c1ccc(OC2CN(c3ncc(C4CC4)cn3)C2)cc1 [Example 8.6]
Second: CCC(=O)N[C@@H](C)c1ccc(OC2CN(c3ncc(C4CC4)cn3)C2)cc1 [Example 9, (S)—N-(1-(4-(1-(5-Cyclopropylpyrimidin-2-yl)azetidin-3-yloxy)phenyl)ethyl)-propionamide]
The IC50 of the first is 1.6-fold higher: 1.77 µM for the first, 1.1 µM for the second. The second is the more potent here.

Going from `CCOc1ccc(N2CC(Oc3ccc([C@H](C)NC(=O)c4sc(NC(C)=O)nc4C)cc3)C2)cc1` [Example 8.28] to `CCOc1ccc(N2CC(Oc3ccc([C@H](C)NC(=O)c4cnc(NC(C)=O)s4)cc3)C2)cc1` [Example 8.32], the IC50 rises from 0.17 µM to 0.55 µM (3.2-fold).

`CC(=O)NC(C)c1ccc(OC2CN(c3cnc(OC4CCC4)nc3)C2)cc1` (centres unmarked) [Example 1.10] and `CC(=O)NC(C)c1ccc(OC2CN(c3ccc(OC4CC4)cc3)C2)cc1` (centres unmarked) [Example 1.3] are within 1.5-fold of each other in IC50: 0.67 µM for the first, 0.53 µM for the second.

`CCOc1ccc(N2CC(Oc3ccc([C@H](C)NC(=O)CF)cc3)C2)cc1` [Example 8.30] and `CCOc1ccc(N2CC(Oc3ccc([C@H](C)NC(=O)CC(F)(F)F)cc3)C2)cc1` [Example 8.18] are within 1.5-fold of each other in IC50: 0.67 µM for the first, 0.74 µM for the second.

`CCOc1ccc(N2CC(Oc3ccc([C@H](C)NC(=O)c4cccc(NC(C)=O)c4)cc3)C2)cc1` [Example 8.11] and `CCOc1ccc(N2CC(Oc3ccc([C@H](C)NC(=O)CCOC)cc3)C2)cc1` [Example 8.26] are within 1.5-fold of each other in IC50: 2.84 µM for the first, 2.78 µM for the second.

Compared with `CC(=O)N[C@@H](C)c1ccc(OC2CN(c3ccc4oc(C)nc4c3)C2)cc1` [Example 1.27], `CCCOc1cccc(N2CC(Oc3ccc([C@H](C)NC(C)=O)cc3)C2)c1` [Example 1.48] is 1.7-fold lower in IC50: 1.75 µM for the first, 1.02 µM for the second.

First: C[C@H](NC(=O)c1cn[nH]c1)c1ccc(OC2CN(c3ncc(C4CC4)cn3)C2)cc1 [Example 8.5]
Second: CC(=O)N[C@@H](C)c1ccc(OC2CN(c3cccc(OCC4CC4)c3)C2)cc1 [Example 7.1]
The IC50 of the first is 9-fold lower: 0.16 µM for the first, 1.44 µM for the second. The first is the more potent here.

Going from `CC(=O)N[C@@H](C)c1ccc(OC2CN(c3nccc(C(F)(F)F)n3)C2)cc1` [Example 4.16] to `CC(=O)N[C@@H](C)c1ccc(OC2CN(c3cc(C(F)(F)F)ccn3)C2)cc1` [Example 4.20], the IC50 rises from 0.47 µM to 0.77 µM (1.6-fold). The first is the more potent here.

Compared with `CC(=O)N[C@@H](C)c1ccc(OC2CN(c3cc(Cl)ccn3)C2)cc1` [Example 4.7], `CC(=O)N[C@@H](C)c1ccc(OC2CN(c3ccc4cc(Cl)ccc4n3)C2)cc1` [Example 4.15] is 5-fold lower in IC50: 3.47 µM for the first, 0.69 µM for the second.

`CC(=O)N[C@@H](C)c1ccc(OC2CN(c3cccc(C(F)(F)F)c3)C2)cc1` [Example 1.56] and `CC(=O)N[C@@H](C)c1ccc(OC2CN(c3ncc(C(F)(F)F)cc3F)C2)cc1` [Example 4.31] are within 1.5-fold of each other in IC50: 0.15 µM for the first, 0.19 µM for the second.

First: CC(=O)N[C@@H](C)c1ccc(OC2CN(c3cc4c(cc3F)OCCO4)C2)cc1 [Example 1.57]
Second: COc1cc(OC(C)C)ccc1N1CC(Oc2ccc([C@H](C)NC(C)=O)cc2)C1 [Example 1.37]
The IC50 of the first is 3.1-fold lower: 0.74 µM for the first, 2.27 µM for the second.

`CC(=O)N[C@@H](C)c1ccc(OC2CN(c3ccc(OCC4CC4)cc3)C2)cn1` (stereo in doubt) [Example 14, N-(1-{5-[1-(4-Cyclopropylmethoxy-phenyl)-azetidin-3-yloxy]-pyridin-2-yl}-ethyl)-acetamide] gave an IC50 of 2.04 µM.
